Test results taken from paper PMC9775191, “A Subset Screen of the Compounds Australia Scaffold Library Identifies 7-Acylaminodibenzoxazepinones as Potent and Selective Hits for Anti-Giardia Drug Discovery” (Biomedicines, 2022).
Read-outs that look alike come from different tables or passages of the source.

Assays:
[1] = test system: G. duodenalis BRIS/91/HEPU/1279; assay: Primary Giardia screen at 10 µM (live-cell imaging, automated counting); type: cell-based, Giardia duodenalis; conditions: for inhibition at 10 µM: Giardia duodenalis
In short: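 Percent growth versus 0.2% DMSO vehicle, background-corrected with media-only wells, is reported at 24 and 48 h from automated live-cell counts. Testing used 10 μM final in a 3% O2 atmosphere, with plate quality checked by Z' factor.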

[2] = test system: Neonatal foreskin fibroblast (NFF) cells; assay: Mammalian cell cytotoxicity assay (sulforhodamine B); type: cell-based, human; conditions: for inhibition at 20 µM / IC50: Homo sapiens, NFF; for inhibition at 20 µM: ±SD; for SI (48h Gd): NFF vs 48 h Giardia IC50; for Selectivity: NFF IC50 divided by G. duodenalis BRIS/91/HEPU/1279 IC50
Protocol: The selectivity of compounds of interest was assessed against NFF cells. Assays were performed using sulforhodamine B and included media only, negative (no compound, no DMSO), and vehicle (DMSO) controls as previously described. A chloroquine control plate was included in each assay. […] Repurchased SN00797640 was tested in dose–response from 100 µM against NFF. Selectivity indices (SI) were calculated by dividing mammalian cell IC50 values by G. duodenalis BRIS/91/HEPU/1279 IC50 values.

[3] = test system: Acinetobacter baumannii (ATCC 19606); assay: Anti-bacterial activity assay; type: cell-based; conditions: ATCC19606, 50 µM
Protocol: (§1) The activity of compounds against methicillin resistant Staphylococcus aureus (ATCC 43300), Escherichia coli (ATCC 25922), Acinetobacter baumannii (ATCC 19606) and Klebsiella pneumoniae (ATCC 700603) was assessed at 50 µM in duplicate as previously described. In brief, mid-log phase bacteria cultures were added to 384-well microtiter plate wells containing compound to final cell density of 5 × 10^5 CFU/mL in 50 µL. Plates were then covered and incubated at 37 °C for 18 h without shaking. Inhibition of bacterial growth was determined by measuring absorbance at 600 nm (Tecan M1000 Pro monochromator plate reader) and calculating percentage growth inhibition relative to the negative media and bacteria without inhibitors. Vancomycin hydrochloride (Sigma-Aldrich an affiliate of Merck KGaA, Darmstadt, Germany, #861987) and colistin sulfate (Sigma-Aldrich an affiliate of Merck KGaA, Darmstadt, Germany, C4461) were on each plate as positive controls for Gram-positive (S. aureus) and Gram-negative (E. coli, A. baumannii and K. pneumoniae) bacteria, respectively.

[4] = test system: Klebsiella pneumoniae (ATCC 700603); assay: Anti-bacterial activity assay; type: cell-based; conditions: ATCC700603, 50 µM, read-out: Bacterial Inhibition K. pneumoniae
Protocol: as §1

[5] = test system: Escherichia coli (ATCC 25922); assay: Anti-bacterial activity assay; type: cell-based; conditions: for inhibition at 50 µM: Escherichia coli, ATCC25922, 50 µM, read-out: Bacterial Inhibition E. coli; for selectivity index over bacteria: E. coli, A. baumannii and K. pneumoniae / bacteria, Table S2
Protocol: as §1

[6] = test system: methicillin resistant Staphylococcus aureus (ATCC 43300); assay: Anti-bacterial activity assay; type: cell-based; conditions: for inhibition at 50 µM: Staphylococcus aureus, ATCC43300, 50 µM, read-out: Bacterial Inhibition S. aureus; for Bacterial Inhibition S. aureus: 50 µM
Protocol: as §1

[7] = test system: G. duodenalis BRIS/91/HEPU/1279; assay: Giardia dose response assay, assemblage B; type: cell-based, Giardia duodenalis; conditions: for fold more potent than metronidazole: 48 h IC50
Protocol: In these assays, compounds were serially diluted (8–12-point doubling dilutions in technical duplicate) in DMSO control media, with all test wells inoculated with parasites (1.5 × 10^4 parasites for BRIS/91/HEPU/1279 and BRIS/91/HEPU/1279m1, or 3 × 10^3 parasites for BRIS/87/HEPU/713). […] All plates were sealed in culture chambers and gassed with 3% O2, 5% CO2 in N2 and incubated at 37 °C for 48 h, with parasites imaged and enumerated at 24 and 48 h. Growth inhibition was calculated as a percentage relative to vehicle controls minus any background as described above and IC50 values were determined using log-linear interpolation as previously described. […] Statistical comparison of IC50 values when required were performed using Student’s t-test.

[8] = 24 h, first singlicate assay, read-out: % Inhibition n=1 24h
[9] = 24 h, re-assessment, read-out: % Inhibition n=2 24h
[10] = 24 h, read-out: Average % Inhibition 24h
[11] = 48 h, first singlicate assay, read-out: % Inhibition n=1 48h
[12] = 48 h, re-assessment, read-out: % Inhibition n=2 48h
[13] = 48 h, read-out: Average % Inhibition 48h
[14] = Giardia duodenalis, 24 h, read-out: G. duodenalis IC50 24h, Table S2, 24 h, ±SD, max 10 µM
[15] = Giardia duodenalis, 48 h, Table S2, 48 h, ±SD, max 10 µM, read-out: G. duodenalis IC50 48h
[16] = Giardia duodenalis, 48 h, BRIS/91/HEPU/1279, 48 h, mean ± SD, read-out: IC50 Giardia (48 h)

Row | SMILES | inhibition at 10 µM [1, 8] [%] | inhibition at 10 µM [1, 9] [%] | inhibition at 10 µM [1, 10] [%] | inhibition at 10 µM [1, 11] [%] | inhibition at 10 µM [1, 12] [%] | inhibition at 10 µM [1, 13] [%] | inhibition at 20 µM [2] [%] | inhibition at 50 µM [3] [%] | inhibition at 50 µM [4] [%] | inhibition at 50 µM [5] [%] | inhibition at 50 µM [6] [%] | IC50 [7, 14] [µM] | IC50 [7, 15] [µM] | SI (48h Gd) ([2]; Table S2) | IC50 ([2]; mean ± SD, read-out: IC50 NFF) [µM] | Selectivity [2] | IC50 [7, 16] [µM] | further results
1 | COc1cc(NS(=O)(=O)c2ccc(C)cc2)cc2sc(NC(=O)c3ccccc3)nc12 [SN00790147, COc1cc(cc2sc(NC(=O)c3ccccc3)nc12)NS(=O)(=O)c1ccc(C)cc1] | 34.5 | 12.8 | 23.6 | 56.9 | 43.2 | 50.1 | 53.3 ± 7.1 | 3.03 | 6.94 | -1.53 | 11.9 | > 10 | > 10 | – | – | – | – | –
2 | Cc1ccc(-n2c(=O)c3c(cnn3C)n(CC(=O)Nc3ccccc3C)c2=O)cc1 [SN00784346, Cc1ccc(cc1)n1c(=O)n(CC(=O)Nc2ccccc2C)c2cnn(C)c2c1=O] | 52 | 55.8 | 53.9 | 77.6 | 76.3 | 76.9 | -1.1 ± 0.8 | 0.24 | -2.01 | 3.09 | 5.68 | > 10 | 7.66 | > 2 | – | – | – | –
3 | Nc1c(-c2nc(-c3ccccc3)cs2)c2ccccn2c1C(=O)c1ccc2c(c1)OCO2 [SN00785732, O=C(c1ccc2OCOc2c1)c1c(N)c(c2scc(n2)c2ccccc2)c2ccccn12] | 64.4 | 62 | 63.2 | 82.4 | 83.8 | 83.1 | 41.6 ± 2.7 | 9.69 | 9.49 | 0.23 | 2.41 | 7.64 | 7.68 | > 2 | – | – | – | –
4 | Cc1cccc(CNS(=O)(=O)c2cc(-c3csc(C)n3)sc2C)c1 [SN00798431, Cc1cccc(CNS(=O)(=O)c2cc(sc2C)c2csc(C)n2)c1] | 30.2 | 12.3 | 21.2 | 59.2 | 68.1 | 63.6 | 19.3 ± 27 | 42.5 | 13.7 | -0.77 | 13.3 | > 10 | 5.93 ± 5.7 | > 3 | – | – | – | –
5 | CN1C(=O)c2ccccc2Oc2cc(NC(=O)c3cc4ccccc4[nH]3)ccc21 [SN00797648] | – | – | – | – | – | – | – | – | – | – | – | – | – | – | > 20 | >11 | 1.4 | IC50 ([7]; BRIS/91/HEPU/1279, 48 h, mean ± SD, read-out: IC50 Giardia (48 h)): 1.7 µM
6 | CN(C)CCn1cc(C(=O)c2cc(Cl)ccc2O)cc1-c1nc2ccccc2c(=O)[nH]1 [SN00778038, CN(C)CCn1cc(cc1c1nc2ccccc2c(=O)[nH]1)C(=O)c1cc(Cl)ccc1O] | 45.3 | 44.7 | 45 | 85.2 | 86.5 | 85.8 | 8.4 ± 4.7 | -8.73 | -1.96 | -2.44 | -9.58 | > 10 | 6.39 ± 2.8 | > 5 | – | – | – | –
7 | O=C(Cc1csc2nc(-c3ccccc3)cn12)Nc1ccc(Cl)cc1 [SN00796218, Clc1ccc(cc1)NC(=O)Cc1csc2nc(cn12)c1ccccc1] | 47.2 | 48 | 47.6 | 59.9 | 75.5 | 67.7 | 29.7 ± 10.3 | 4.35 | 3.63 | 3.03 | -2.23 | > 10 | > 10 | – | – | – | – | –
8 | Cc1cc(-c2cc(C(=O)Nc3ccc(N4CCN(C)CC4)nc3)c3cnn(C(C)C)c3n2)c(C)o1 [SN00776497] | 94.6 | 97.2 | 95.9 | 98 | 98.5 | 98.2 | – | 19.6 | 8.25 | 5.45 | 55.8 | 0.25 ± 0.27 | – | 101 | 8.1 | 101 | 0.08 | Average % Inhibition 48h ([1]; 48 h): > 90%; selectivity index over bacteria [5]: > 600; Bacterial Inhibition S. aureus [6]: 56%; fold more potent than metronidazole [7]: > 30 fold
9 | O=[N+]([O-])c1ccc(N2CCC(c3ncc[nH]3)CC2)c2ccncc12 [SN00772378, O=N(=O)c1ccc(N2CCC(CC2)c2ncc[nH]2)c2ccncc12] | 80.4 | 47.7 | 64 | 88.7 | 87.4 | 88 | 1.2 ± 1 | 4.73 | 15.6 | 5.55 | 34.4 | > 10 | 4.79 ± 1.45 | – | – | – | – | –
10 | CCc1ccc(C(=O)Nc2ccc3c(c2)Oc2ccccc2C(=O)N3C)cc1 [SN00797643] | – | – | – | – | – | – | – | – | – | – | – | – | – | – | > 10 | >20 | 0.47 | –
11 | CC(C)c1ccc(Nc2ncccc2S(=O)(=O)N2CCCC2)cc1 [SN00799289, CC(C)c1ccc(cc1)Nc1ncccc1S(=O)(=O)N1CCCC1] | 43.9 | 10.1 | 27 | 73.3 | 41.7 | 57.5 | 11.4 ± 13.4 | 4.74 | 14.4 | 1.89 | 3.06 | > 10 | 3.36 ± 1.52 | > 5 | – | – | – | –
12 | CC1CCN(C(=O)c2oc3ccccc3c2NC(=O)c2ccc([N+](=O)[O-])o2)CC1 [SN00788467] | 93.2 | 82.3 | 87.7 | 93.9 | 96.4 | 95.2 | – | 3.19 | -1.21 | 3.73 | 99.1 | 0.24 ± 0.04 | – | > 166 | > 10 | >166 | 0.06 | Average % Inhibition 48h ([1]; 48 h): > 90%; selectivity index over bacteria [5]: > 800; Bacterial Inhibition S. aureus [6]: 99%; fold more potent than metronidazole [7]: > 45 fold
13 | Cc1cc2[nH]c(C(=O)Nc3ccccc3C)c(CN3CCOCC3)c2s1 [SN00798525, Cc1cc2[nH]c(C(=O)Nc3ccccc3C)c(CN3CCOCC3)c2s1] | 91.4 | 97.9 | 94.7 | 96.5 | 98.8 | 97.6 | – | 4.92 | 6.11 | -0.27 | 22.2 | – | – | – | – | – | – | Average % Inhibition 48h ([1]; 48 h): > 90%; IC50 ([2]; Table S2, max 10 µM, read-out: NFF IC50): > 10 µM
